The subject of data set [1] is immediate early gene c-fos expression in the brain. To be noted: mouse. Here is the method:
(A) Mice were treated with a drug or vehicle solution for the control group using either intraperitoneal (i.p.), per oral (p.o.). subcutaneous (s.c.), intramuscular (i.m.) or intravenous (i.v.) delivery.
(C) After the aforementioned c-fos induction period, the mice were sacrificed and the c-fos induction was visualized using whole-brain immunostaining. The brains were then chemically cleared and imaged by light-sheet fluorescent microscopy (LSFM).
(D) The whole-brain scans are depicted as serial section datasets with an XYZ resolution of about 4×4×5 microns.
(E) The c-fos-positive cells were detected in these datasets using custom algorithms.
(F) The whole-brain distribution of the detected c-fos-positive cells was then represented in 3D as a spatial map of centroid points in the 3D space of the mouse brain.
(G) This 3D map distribution was registered to a reference mouse brain and spatially voxelized using overlapping 150-micron sphere voxels.
This method called “pharmacomapping” (implemented as a fee for service by CRO Certerra, Inc. Farmingdale, N.Y.) is based on a proprietary and largely automated drug-screening platform that comprises whole-brain detection of drug-evoked neuronal activation represented by drug-evoked expression of the immediate early gene (IEG) c-fos. Until now, the detection of c-fos as a marker of brain activation required time-consuming, laborious methods such as in situ hybridization or immunohistochemistry in brain tissue sections, followed by mounting the sections on microscopic slides, manual imaging, and largely visual quantification. Nevertheless, over the last two decades a number of studies used these methods to test drug-evoked activity in the mouse or rat brain for various psychoactive medications, including antipsychotics, antidepressants, stimulants and anxiolytics (Engber et al., 1998; Salminen et al., 1996; SEMBA et al., 1996; Slattery et al., 2005; Sumner et al., 2004).
In contrast to the older methods, the pharmacomapping method uses largely automated and standardized whole-brain immunostaining and brain clearing together with advanced microscopy (light-sheet fluorescence microscopy, LSFM), computational (e.g. machine learning) and statistical methods (FIG. 1; see, for example, the published U.S. Patent Application No. 2014/0297199, the content of which is incorporated by reference herein in its entirety). The first generation of this platform used serial two-photon tomography (STPT) as a method for imaging and c-fos-GFP mice expressing green fluorescent protein (GFP) under the control of the c-fos promoter (see, e.g., published U.S. Patent Application No. 2014/0297199, the content of which is incorporated by reference herein in its entirety).
The second generation of the pharmacomapping platform currently employed by Certerra uses whole-brain immunostaining and clearing procedure named iDISCO+ and whole-brain imaging by light-sheet fluorescence microscopy to detect c-fos-positive neurons in wild type mice (Renier et al., 2016).

Data set [2] concerns d-amphetamine-induced hyperactivity. The data set can be described thus: d-amphetamine-induced hyperlocomotion, rodent model of mania. In kind it is in vivo. Conditions: mice, 20 min before d-amphetamine 3.5 mg/kg.
The conditions of data set [3]: cited from earlier work.
For data set [4] the following is noted: female mother rats; cited from earlier work.
For data set [5] the following is noted: cited from earlier work. The source holds these as a separate data set.

“Also recorded” adds a separate entry of the source. Like-named read-outs stand apart in the source and are kept apart here.

Here are results for three compounds from patent publication US20220008388A1 (Certego Therapeutics Inc., priority 2018, published 2022).

In the case of `O=C([O-])[O-].[Li+].[Li+]` [lithium, lithium carbonate], the “brain activation (c-fos induction)” value in data set [1] (lithium 85 mg/kg alone (HED about 425 mg)) is “did not elicit any detectable c-fos signaling activity; also recorded: neither gaboxadol at 3 mg/kg nor lithium at 85 mg/kg alone evoked any brain activation; also recorded: neither lithium at 85 mg/kg (top row; human equivalent dose about 425 mg), nor gaboxadol at 3 mg/kg (middle row; human equivalent dose about 15 mg) induced any brain activation on their own”; in data set [1] (lithium 120 mg/kg (HED about 600 mg)), “modest to moderate activation of a few structures”; in data set [1] (lithium 150 mg/kg alone (HED about 750 mg)), “modest to moderate activation of a few structures; also recorded: moderate brain activation”; in data set [1] (lithium 200 mg/kg alone (HED about 1000 mg)), “considerably broader activation; also recorded: moderate brain activation”; in data set [1] (lithium 300 mg/kg (HED about 1500 mg)), “prominently activated; also recorded: closely matched that of gaboxadol at 20 mg/kg; also recorded: broad activation pattern”; in data set [1] (lithium 400 mg/kg as printed) it was “considerably broader activation”. In addition, in data set [2] (lithium 14.1 mg/kg), the “moderation of d-amphetamine-induced locomotion (ambulatory counts)” value was “had no behavioral effect; also recorded: not moderated”. Moreover, the “people who stopped taking lithium because of adverse events” value in data set [3] (BD patients, epidemiological study (Öhlund et al., 2018)) is 62%. Besides, the “patients showing good long-term efficacy” value in data set [3] (BD patients, long-term maintenance (Scott et al., 2017)) is “approximately 30%”. Moreover, the “lithium concentration in drinking water with anti-suicide effect” value in data set [3] (drinking water) was “less than 150 μg/L”. The “serum lithium concentration associated with mild toxicity” value in data set [3] (human) is 1.2 to 2.5 mmol/L. Further, in data set [3] (human), the “serum lithium concentration that can be life-threatening” value was “greater than 3.5 mmol/L”. Further, the “serum lithium concentration for maintenance treatment” value in data set [3] (maintenance of bipolar disorder) was 0.6 to 1.0 mmol/L. Besides, the “state of alertness compared to control rats fed placebo” value in data set [4] is “low”.
On to `Oc1noc2c1CCNC2` [gaboxadol, 4,5,6,7-tetrahydroisoxazolo (5,4-c) pyridin-3-ol], for which the “brain activation (c-fos induction)” value in data set [1] (gaboxadol 3 mg/kg alone (HED about 15 mg)) is reported as “did not elicit any detectable c-fos signaling activity; also recorded: neither gaboxadol at 3 mg/kg nor lithium at 85 mg/kg alone evoked any brain activation; also recorded: nor gaboxadol at 3 mg/kg (middle row; human equivalent dose about 15 mg) induced any brain activation on their own”; in data set [1] (gaboxadol 6 mg/kg alone (HED about 30 mg)) it was “moderate brain activation”; in data set [1] (gaboxadol 20 mg/kg (HED about 100 mg)) it was “broad cortical activation”. For the same compound, the “moderation of d-amphetamine-induced locomotion (ambulatory counts)” value in data set [2] (gaboxadol 3 mg/kg, Anova p=0.007, Fisher's PLSD p=0.6) is listed as “only modestly”. Moreover, the “adverse side-effects in clinical trials” value in data set [5] (human doses equivalent to the mouse 6 mg/kg dose) is “no adverse side-effects”. The “effects in sleep onset and sleep maintenance” value in data set [5] (insomnia, three-month efficacy study) was “failed to show significant effects”.
Turning to `[6Li]` [lithium-6], the “state of alertness compared to control rats fed placebo” value in data set [4] is reported as “very high”.
